# Experimental data: US8614219B2, “Substituted pyrimidin-4-one derivatives” (Sanofi-aventis, priority 2008, dated 2013)
# pIC50: −log10 of the molar value.
# Biological target: GSK3β (Homo sapiens, UniProt P49841)
# Assay: Inhibitory activity against GSK3β (33P-ATP phosphorylation of prephosphorylated GS1 peptide, four protocols)
# Type: biochemical
# Details: protocol 4: commercial GSK3beta (Millipore), 7.5 μM GS1 peptide, 10 μM ATP, 50 mM Hepes pH 7.2, 90 minutes at room temperature
# Description: Four different protocols can be used. In a first protocol: 7.5 μM of prephosphorylated GS1 peptide and 10 μM ATP (containing 300,000 cpm of ^33P-ATP) were incubated in 25 mM Tris-HCl, pH 7.5, 0.6 mM DTT, 6 mM MgCl2, 0.6 mM EGTA, 0.05 mg/ml BSA buffer for 1 hour at room temperature in the presence of GSK3beta (total reaction volume: 100 microliters). In a second protocol: 4.1 μM of prephosphorylated GS1 peptide and 42 μM ATP (containing 260,000 cpm ^33P-ATP) were incubated in 80 mM Mes-NaOH, pH 6.5, 1 mM Mg acetate, 0.5 mM EGTA, 5 mM 2-mercaptoethanol, 0.02% Tween 20, 10% glycerol buffer for 2 hours at room temperature in the presence of GSK3beta. In a third protocol: 7.5 μM of prephosphorylated GS1 peptide and 10 μM ATP (containing 300,000 cpm of ^33P-ATP) were incubated in 50 mM Hepes, pH 7.2, 1 mM DTT, 1 mM MgCl2, 1 mM EGTA, 0.01% Tween 20 buffer for one hour at room temperature in the presence of GSK3beta (total reaction volume: 100 microliters). In a fourth protocol: 7.5 μM of prephosphorylated GS1 peptide and 10 μM ATP (containing 300,000 cpm of ^33P-ATP) were incubated in 50 mM Hepes, pH 7.2, 1 mM DTT, 1 mM MgCl2, 1 mM EGTA, 0.01% Tween 20 buffer for 90 minutes at room temperature in the presence of commercial GSK3beta (Millipore) (total reaction volume: 100 microliters). Inhibitors were solubilized in DMSO (final solvent concentration in the reaction medium, 1%). The reaction was stopped with 100 microliters of a solution made of 25 g polyphosphoric acid (85% P2O5), 126 ml 85% H3PO4, H2O to 500 ml and then diluted to 1:100 before use. An aliquot of the reaction mixture was then transferred to Whatman P81 cation exchange filters and rinsed with the solution described above. Incorporated ^33P radioactivity was determined by liquid scintillation spectrometry. The phosphorylated GS-1 peptide had the following sequence: NH2-[…](P)EDEE-COOH. (Woodgett, J. R. (1989) Analytical Biochemistry 180, 237-241.
# Chain of GSK3β (P49841 whole entry): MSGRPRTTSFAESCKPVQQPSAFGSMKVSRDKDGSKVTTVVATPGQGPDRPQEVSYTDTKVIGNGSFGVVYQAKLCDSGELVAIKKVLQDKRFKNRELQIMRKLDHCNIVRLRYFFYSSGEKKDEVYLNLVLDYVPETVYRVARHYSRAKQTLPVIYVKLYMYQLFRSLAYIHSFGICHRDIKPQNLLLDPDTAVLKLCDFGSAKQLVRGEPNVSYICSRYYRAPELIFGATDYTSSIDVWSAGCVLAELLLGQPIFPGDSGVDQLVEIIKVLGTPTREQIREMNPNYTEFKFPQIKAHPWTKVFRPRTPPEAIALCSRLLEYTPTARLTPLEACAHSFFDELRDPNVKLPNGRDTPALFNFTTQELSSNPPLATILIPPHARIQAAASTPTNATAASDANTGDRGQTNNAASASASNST
row,pIC50,SMILES
1,7.57,"COc1ccccc1NC(=O)C1CCCn2c1nc(-c1ccncn1)cc2=O (racemic) [compound No. 1 of table 1, (+/−)-4-oxo-2-pyrimidin-4-yl-6,7,8,9-tetrahydro-4H-pyrido[1,2-a]pyrimidine-9-carboxylic acid N-(2-methoxy-phenyl)-amide]"
2,7.52,"COc1cc(Cl)ccc1C(=O)NCC1CCCCn2c1nc(-c1ccncn1)cc2=O (racemic) [compound No. 2 of table 2, (+/−)-4-Chloro-2-methoxy-N-(4-oxo-2-pyrimidin-4-yl-4,6,7,8,9,10-hexahydro-pyrimido[1,2-a]azepin-10-ylmethyl)-benzamide]"
3,7.72,"COc1cc(Cl)ccc1C(=O)NCC1CCCn2c1nc(-c1ccncn1)cc2=O (racemic) [compound No. 8 of table 1, (+/−)-4-Chloro-2-methoxy-N-(4-oxo-2-pyrimidin-4-yl-6,7,8,9-tetrahydro-4H-pyrido[1,2-a]pyrimidin-9-ylmethyl)-benzamide]"
